Data taken from patent US10287300B2 (Merck Patent GmbH, priority 2012, dated 2019).

Key:
His-AKT (Full Length) = His-AKT (Full Length) (Homo sapiens (Human), UniProt P31749); assay: AKT enzyme assay; format: biochemical; conditions: 160 uM ATP, 90 min at 25° C.
Protocol: A TTP Mosquito liquid handling instrument was used to place 125 nl of the appropriate concentration of inhibitor in 100% DMSO (for a dose response curve calculation) into each well of a 384-well plate. To this reaction components were added to a final volume of 12.5 μl: • 0.1 ng/μl His-AKT (Full Length), (Invitrogen, Part # P2999, Lot #641228C). • 160 uM ATP (Fluka, 02055) • 1 mM DTT (Sigma, D0632) • 1 mM MgCl2 (Sigma, M1028) • 1 μM substrate peptide (sequence FITC-AHA-GRPRTSSFAEG-NH2), • synthesized by Tufts Peptide Synthesis service. • 100 mM HEPES pH 7.5 (Calbiochem, 391338) • 0.015% Brij-35 (Sigma, B4184)
The reaction was incubated for 90 min at 25° C., and then stopped by the addition of 70 μl of Stop buffer (100 mM HEPES pH 7.5, 0.015% Brij-35, 10 mM EDTA (Sigma, E7889)).
The plate was read on a Caliper LC 3000 in an Off-Chip mobility shift assay format, using the following parameters for a 12-sipper chip: screening pressure −2.3 psi, upstream voltage −500, and downstream voltage −3000. These conditions caused unphosphorylated substrate and phosphorylated product peptide to resolve as separate peaks allowing direct measurement of percentage of conversion of substrate to product. The percent conversion was plotted against concentration of inhibitor to produce a sigmoidal dose response curve, from which an IC50 was calculated.

[1] = molecular target: P70S6K (T412E mutant, Millipore) (Homo sapiens (Human), UniProt P23443, T412E); assay: P70S6K enzyme assay; format: biochemical; conditions: 24 μM ATP, 90 min at 25° C.
Protocol: P70S6K inhibitor compounds were diluted and plated in 96 well plates. A reaction mixture including the following components was then added to the compound plate to initiate the enzyme reaction; P70S6K (3 nM, T412E mutant, Millipore) was mixed with 24 μM ATP in an assay buffer containing 100 mM Hepes (pH 7.5), 5 mM MgCl2, 1 mM DTT, 0.015% Brij and 1 μM of the substrate peptide FITC-AHA-AKRRRLSSLRA-OH (derived from the S6 ribosomal protein sequence, FITC=fluorescein isothiocyanate, AHA=6-aminohexanoic acid). The reaction was incubated for 90 min at 25° C., before the addition of 10 mM EDTA to stop the reaction. The proportion of substrate and product (phosphorylated) peptide was analysed on a Caliper Life Sciences Lab Chip 3000, using a pressure of −1.4 psi, and upstream and downstream voltages of −3000 and −700 respectively. Product peaks were resolved before substrate peaks on the resulting chromatograms.

Chain of His-AKT (Full Length) (P31749 whole entry): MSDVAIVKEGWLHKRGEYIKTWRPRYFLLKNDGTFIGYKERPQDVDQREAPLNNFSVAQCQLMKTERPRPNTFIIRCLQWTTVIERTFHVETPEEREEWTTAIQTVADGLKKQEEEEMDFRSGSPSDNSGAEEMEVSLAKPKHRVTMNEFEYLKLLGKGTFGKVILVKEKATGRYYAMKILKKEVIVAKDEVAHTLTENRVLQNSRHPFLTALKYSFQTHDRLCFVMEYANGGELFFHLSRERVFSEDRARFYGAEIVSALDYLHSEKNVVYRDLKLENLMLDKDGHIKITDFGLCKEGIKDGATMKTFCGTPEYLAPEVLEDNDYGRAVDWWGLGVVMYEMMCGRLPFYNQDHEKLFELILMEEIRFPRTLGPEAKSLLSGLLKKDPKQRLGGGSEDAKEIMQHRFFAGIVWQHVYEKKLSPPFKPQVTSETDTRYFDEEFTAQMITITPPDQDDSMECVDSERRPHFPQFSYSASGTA
Chain of P70S6K (T412E mutant, Millipore) (P23443 whole entry T412E): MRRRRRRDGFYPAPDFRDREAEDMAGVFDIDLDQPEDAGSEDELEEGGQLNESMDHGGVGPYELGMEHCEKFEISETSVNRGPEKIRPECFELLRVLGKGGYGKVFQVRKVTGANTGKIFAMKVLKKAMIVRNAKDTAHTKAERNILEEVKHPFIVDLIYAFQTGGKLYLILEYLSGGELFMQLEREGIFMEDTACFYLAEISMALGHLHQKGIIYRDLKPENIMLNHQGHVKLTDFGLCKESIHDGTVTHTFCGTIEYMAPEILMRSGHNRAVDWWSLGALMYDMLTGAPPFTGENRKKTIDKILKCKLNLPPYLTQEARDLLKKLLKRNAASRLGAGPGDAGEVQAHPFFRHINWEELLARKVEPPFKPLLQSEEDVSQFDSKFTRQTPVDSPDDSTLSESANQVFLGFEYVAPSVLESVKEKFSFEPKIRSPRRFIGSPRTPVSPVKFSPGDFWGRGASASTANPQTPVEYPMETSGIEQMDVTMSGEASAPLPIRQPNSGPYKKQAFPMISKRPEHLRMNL

| Compound | IC50 (His-AKT (Full Length)) [nM] | IC50 [1] [nM] |
| --- | --- | --- |
| O=C1CNc2ncnc(N3CCN(C(CN4CCC4)c4ccccc4Cl)CC3)c2N1 (stereo not drawn) [Compound A42, 4-(4-(2-(azetidin-1-yl)-1-(2-chlorophenyl)ethyl)piperazin-1-yl)-7,8-dihydropteridin-6(5H)-one] | > 1000 | > 1000 |
| O=C1CNc2ncnc(N3CCN(C(CN4CCCC4)c4ccccc4Cl)CC3)c2N1 (stereo not drawn) [Compound A43, 4-(4-(1-(2-chlorophenyl)-2-(pyrrolidin-1-yl)ethyl)piperazin-1-yl)-7,8-dihydropteridin-6(5H)-one] | > 1000 | > 1000 |
| O=C1CNc2ncnc(N3CCN(C(CN4CCCCC4)c4ccccc4Cl)CC3)c2N1 (stereo not drawn) [Compound A44, 4-(4-(1-(2-chlorophenyl)-2-(piperidin-1-yl)ethyl)piperazin-1-yl)-7,8-dihydropteridin-6(5H)-one] | > 1000 | > 1000 |
| Cc1ccccc1C(CN(C)C)N1CCN(c2ncnc3c2NC(=O)CN3)CC1 (stereo not drawn) [Compound A45, 4-(4-(2-(dimethylamino)-1-(o-tolyl)ethyl)piperazin-1-yl)-7,8-dihydropteridin-6(5H)-one] | > 1000 | > 1000 |
| Cc1ccccc1C(CN1CCCC1)N1CCN(c2ncnc3c2NC(=O)CN3)CC1 (stereo not drawn) [Compound A46, 4-(4-(2-(pyrrolidin-1-yl)-1-(o-tolyl)ethyl)piperazin-1-yl)-7,8-dihydropteridin-6(5H)-one] | > 1000 | > 1000 |
| Cc1ccccc1C(CN1CCCCC1)N1CCN(c2ncnc3c2NC(=O)CN3)CC1 (stereo not drawn) [Compound A47, 4-(4-(2-(piperidin-1-yl)-1-(o-tolyl)ethyl)piperazin-1-yl)-7,8-dihydropteridin-6(5H)-one] | > 1000 | > 1000 |
| NCC(c1ccc(F)c(F)c1)N1CCN(c2ncnc3c2NC(=O)CN3)CC1 (stereo not drawn) [Compound A48] | > 1000 | > 1000 |
| CN(C)CC(c1ccc(F)c(F)c1)N1CCN(c2ncnc3c2NC(=O)CN3)CC1 (stereo not drawn) [Compound A49, 4-(4-(1-(3,4-difluorophenyl)-2-(dimethylamino)ethyl)piperazin-1-yl)-7,8-dihydropteridin-6(5H)-one] | > 1000 | > 1000 |
| CNCC(c1ccc(F)c(F)c1)N1CCN(c2ncnc3c2NC(=O)CN3)CC1 (stereo not drawn) [Compound A50, 4-(4-(1-(3,4-difluorophenyl)-2-(methylamino)ethyl)piperazin-1-yl)-7,8-dihydropteridin-6(5H)-one] | > 1000 | > 1000 |
| O=C1CNc2ncnc(N3CCN(C(CN4CCC4)c4ccc(F)c(F)c4)CC3)c2N1 (stereo not drawn) [Compound A51, 4-(4-(2-(azetidin-1-yl)-1-(3,4-difluorophenyl)ethyl)piperazin-1-yl)-7,8-dihydropteridin-6(5H)-one] | > 1000 | > 1000 |
| O=C1CNc2ncnc(N3CCN(C(CN4CCCC4)c4ccc(F)c(F)c4)CC3)c2N1 (stereo not drawn) [Compound A52, 4-(4-(1-(3,4-difluorophenyl)-2-(pyrrolidin-1-yl)ethyl)piperazin-1-yl)-7,8-dihydropteridin-6(5H)-one] | > 1000 | > 1000 |
| O=C1CNc2ncnc(N3CCN(C(CN4CCCCC4)c4ccc(F)c(F)c4)CC3)c2N1 (stereo not drawn) [Compound A53, 4-(4-(1-(3,4-difluorophenyl)-2-(piperidin-1-yl)ethyl)piperazin-1-yl)-7,8-dihydropteridin-6(5H)-one] | > 1000 | > 1000 |
| CN(C)CC(c1ccc(F)c(Cl)c1)N1CCN(c2ncnc3c2NC(=O)CN3)CC1 (stereo not drawn) [Compound A54, 4-(4-(1-(3-chloro-4-fluorophenyl)-2-(dimethylamino)ethyl)piperazin-1-yl)-7,8-dihydropteridin-6(5H)-one] | > 1000 | > 1000 |
| O=C1CNc2ncnc(N3CCN(C(CN4CCC4)c4ccc(F)c(Cl)c4)CC3)c2N1 (stereo not drawn) [Compound A55, 4-(4-(2-(azetidin-1-yl)-1-(3-chloro-4-fluorophenyl)ethyl)piperazin-1-yl)-7,8-dihydropteridin-6(5H)-one] | > 1000 | > 1000 |
| O=C1CNc2ncnc(N3CCN(C(CN4CCCC4)c4ccc(F)c(Cl)c4)CC3)c2N1 (stereo not drawn) [Compound A56, 4-(4-(1-(3-chloro-4-fluorophenyl)-2-(pyrrolidin-1-yl)ethyl)piperazin-1-yl)-7,8-dihydropteridin-6(5H)-one] | > 1000 | > 1000 |
| O=C1CNc2ncnc(N3CCN(C(CN4CCCCC4)c4ccc(F)c(Cl)c4)CC3)c2N1 (stereo not drawn) [Compound A57] | > 1000 | > 1000 |
| CN(C)CC(c1ccc(Cl)c(F)c1)N1CCN(c2ncnc3c2NC(=O)CN3)CC1 (stereo not drawn) [Compound A58, 4-(4-(1-(4-chloro-3-fluorophenyl)-2-(dimethylamino)ethyl)piperazin-1-yl)-7,8-dihydropteridin-6(5H)-one] | 101 to 500 | > 1000 |
| CNCC(c1ccc(Cl)c(F)c1)N1CCN(c2ncnc3c2NC(=O)CN3)CC1 (stereo not drawn) [Compound A59, 4-(4-(1-(4-chloro-3-fluorophenyl)-2-(methylamino)ethyl)piperazin-1-yl)-7,8-dihydropteridin-6(5H)-one] | > 1000 | > 1000 |
| O=C1CNc2ncnc(N3CCN(C(CN4CCC4)c4ccc(Cl)c(F)c4)CC3)c2N1 (stereo not drawn) [Compound A60, 4-(4-(2-(azetidin-1-yl)-1-(4-chloro-3-fluorophenyl)ethyl)piperazin-1-yl)-7,8-dihydropteridin-6(5H)-one] | > 1000 | > 1000 |
| O=C1CNc2ncnc(N3CCN(C(CN4CCCC4)c4ccc(Cl)c(F)c4)CC3)c2N1 (stereo not drawn) [Compound A61, 4-(4-(1-(4-chloro-3-fluorophenyl)-2-(pyrrolidin-1-yl)ethyl)piperazin-1-yl)-7,8-dihydropteridin-6(5H)-one] | 101 to 500 | > 1000 |
| O=C1CNc2ncnc(N3CCN(C(CN4CCCCC4)c4ccc(Cl)c(F)c4)CC3)c2N1 (stereo not drawn) [Compound A62, 4-(4-(1-(4-chloro-3-fluorophenyl)-2-(piperidin-1-yl)ethyl)piperazin-1-yl)-7,8-dihydropteridin-6(5H)-one] | 501 to 1000 | > 1000 |
| CN(C)CCNCC(c1ccc(C(F)(F)F)cc1)N1CCN(c2ncnc3c2NC(=O)CN3)CC1 (stereo not drawn) [Compound A63, 4-(4-(2((2-(dimethylamino)ethyl)amino)-1-(4-(trifluoromethyl)phenyl)-ethyl)piperazin-1-yl)-7,8-dihydropteridin-6(5H)-one] | > 1000 | > 1000 |
| CN(C)CCNCC(c1cccc(C(F)(F)F)c1)N1CCN(c2ncnc3c2NC(=O)CN3)CC1 (stereo not drawn) [Compound A64, 4-(4-(2-((2-(dimethylamino)ethyl)amino)-1-(3-(trifluoromethyl)phenyl)-ethyl)piperazin-1-yl)-7,8-dihydropteridin-6(5H)-one] | > 1000 | > 1000 |
| Cc1ccc(C(CNCCN(C)C)N2CCN(c3ncnc4c3NC(=O)CN4)CC2)cc1 (stereo not drawn) [Compound A65, 4-(4-(2-((2-(dimethylamino)ethyl)amino)-1-(p-tolyl)ethyl)piperazin-1-yl)-7,8-dihydropteridin-6(5H)-one] | > 1000 | > 1000 |
